Measurements as given in patent publication US5493007A, “Platelet aggregation inhibitors having high specificity for GPIIBIIIA” (Genentech, Inc., priority 1994, dated 1996).
Values joined by “and” are separate entries in the source; they are usually repeats but may differ in a detail not shown here. Equal entries are not always repeated. Where a SMILES comes first, the peptide text is derived from it. Bridges are numbered along the chain shown (N, C = ends). [ ]: non-standard residue; d: D form. Orn = NCCC[C@H](N)C(=O)O

How the values were obtained:
[1] = test system: platelet rich plasma (PRP); assay: Ex vivo platelet aggregation, dog model; type: in vivo
Experimental: (§1) Beagle dogs were premedicated with atropine (3 mg subcutaneously) and anesthetized with intravenous sodium pentobarbital solution (65 mg/ml, to effect, induction and maintenance). The dogs were placed in dorsal recumbency on heating pads, intubated, and placed on oxygen-room air mixture (free breathing). A pulse oximeter was attached and heart rate and oxygen saturation monitored. An indwelling catheter was placed in one cephalic vein through which normal saline drip (for patency) and maintenance anesthetic doses were administered, and in one saphenous vein through which test or control compound was bolused or infused.
At each proscribed time point a 5 ml whole blood sample was withdrawn via jugular venipuncture for ex vivo platelet aggregation and complete blood cell count. Manual pressure was applied to the venipuncture site following blood withdrawal to minimize hematoma formation.
Approximately one ml of blood withdrawn at each timepoint was placed on EDTA (purple-top vacutainer) and used to measure the complete blood cell count on a Cell-Dyne 1500 automated hematology analyzer. 3.6 ml of blood withdrawn at each timepoint was placed on a 3.8% sodium citrate (1 part to 9 parts blood) and centrifuged at 12,000 rpm for 4 seconds in an Eppendorf microcentrifuge. The resultant platelet rich plasma (PRP) was pipetted off for use in ex vivo aggregation procedures.
Platelet aggregation was measured in a Payton dual-channel aggregometer. The equipment was calibrated with PRP assigned as 0% light transmission and PPP as 100% light transmission. PRP was allowed to rest at room temperature for 20 minutes following separation from whole blood. […] PRP was incubated at 37° C. in the aggregometer for approximately 5 minutes with the chart recorder on to establish a baseline. […] ADP (1 mM) was added to the PRP and the aggregation response (change in light transmission) recorded. An aliquot of the PRP was used to perform a platelet count on the Cell-Dyne 1500 automated hematology analyzer. [drawing 50] Example 7, Compound 1

[2] = test system: Beagle dogs; assay: Bleeding time, dog model; type: in vivo
Experimental: as §1
At several timepoints bleeding times were measured. The forearm of the dog was closely shaven. A Surgicutt® automatic bleeding time device was employed to make an approximate 1 cm clean incision through the skin. Blood was blotted with the edge of a Whatman's #4 filter paper every 15 seconds. Bleeding time was measured as the time from incision to the last time blood was absorbed by the filter paper.

[3] = test system: platelet rich plasma (PRP); assay: Rabbit ex-vivo platelet aggregation (XPA), ADP-induced; type: in vivo; conditions: Example 1
Experimental: Catheters are flushed and locked after every sample.
[…] of PRP is placed in a disposable glass cuvette with a stir bar. The cuvette is placed in the temperature regulated light path of a light transmittance aggregometer (Chrono-log) and equilibrated to a 37° C. Baseline transmittance is recorded for 30 seconds, after which […] of ADP (1 mM) is added and the change in transmittance recorded. The maximum change from baseline (dT) is noted for each sample. The extent of inhibition of XPA that is produced by an inhibitor is calculated for each animal as follows: Mean dTs are calculated for the pre and post infusion values, and then, percent inhibition is calculated as (1-dt (post)/ddt (pre))×100.

[4] = target: human platelet rich plasma (PRP) (Homo sapiens, UniProt P05106+P08514); assay: In Vitro Human Platelet Aggregation Assay; type: cell-based; conditions: human PRP; read-out: Human Platelet Aggregation IC50
In short: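 Citrated human PRP, diluted with PPP to about 300,000 platelets/μl from donors free of aspirin for two weeks, was preincubated with inhibitor or PBS for 5 minutes at 25° C. Aggregation was then triggered by collagen 1 μg/ml, U46619 100 ng/ml or ADP 17 μM and followed by light transmission.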

[5] = 300 μg/kg bolus plus an infusion of 7.2 μg/kg/min
[6] = 200 μg/kg bolus plus an infusion of 4.8 μg/kg/min

human platelet rich plasma (PRP), sequence (P08514 32-1039): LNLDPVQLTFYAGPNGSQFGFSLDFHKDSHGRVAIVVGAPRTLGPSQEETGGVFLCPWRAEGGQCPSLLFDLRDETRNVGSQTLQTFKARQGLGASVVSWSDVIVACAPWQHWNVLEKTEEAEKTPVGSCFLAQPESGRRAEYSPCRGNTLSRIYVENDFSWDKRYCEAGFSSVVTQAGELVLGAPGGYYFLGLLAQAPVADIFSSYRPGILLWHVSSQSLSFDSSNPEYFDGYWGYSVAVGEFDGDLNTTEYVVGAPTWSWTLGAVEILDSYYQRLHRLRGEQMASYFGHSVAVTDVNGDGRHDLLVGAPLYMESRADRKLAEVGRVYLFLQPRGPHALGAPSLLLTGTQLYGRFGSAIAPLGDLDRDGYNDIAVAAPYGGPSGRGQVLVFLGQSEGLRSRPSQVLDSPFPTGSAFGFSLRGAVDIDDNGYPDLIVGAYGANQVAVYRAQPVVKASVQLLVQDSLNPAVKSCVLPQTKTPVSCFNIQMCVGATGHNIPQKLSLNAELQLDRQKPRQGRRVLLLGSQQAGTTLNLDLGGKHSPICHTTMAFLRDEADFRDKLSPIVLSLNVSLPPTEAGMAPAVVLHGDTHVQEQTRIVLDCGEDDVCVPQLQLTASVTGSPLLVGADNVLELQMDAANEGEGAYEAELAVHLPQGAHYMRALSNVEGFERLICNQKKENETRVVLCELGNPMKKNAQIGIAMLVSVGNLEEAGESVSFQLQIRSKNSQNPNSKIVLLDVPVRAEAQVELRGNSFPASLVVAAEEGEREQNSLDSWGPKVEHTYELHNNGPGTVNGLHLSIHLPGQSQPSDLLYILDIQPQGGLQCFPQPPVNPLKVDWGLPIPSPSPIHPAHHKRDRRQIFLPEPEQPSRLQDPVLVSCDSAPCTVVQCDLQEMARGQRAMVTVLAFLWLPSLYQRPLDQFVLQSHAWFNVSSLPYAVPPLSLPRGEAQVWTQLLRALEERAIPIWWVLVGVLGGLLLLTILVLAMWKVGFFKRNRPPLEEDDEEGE
human platelet rich plasma (PRP), sequence (P05106 27-788): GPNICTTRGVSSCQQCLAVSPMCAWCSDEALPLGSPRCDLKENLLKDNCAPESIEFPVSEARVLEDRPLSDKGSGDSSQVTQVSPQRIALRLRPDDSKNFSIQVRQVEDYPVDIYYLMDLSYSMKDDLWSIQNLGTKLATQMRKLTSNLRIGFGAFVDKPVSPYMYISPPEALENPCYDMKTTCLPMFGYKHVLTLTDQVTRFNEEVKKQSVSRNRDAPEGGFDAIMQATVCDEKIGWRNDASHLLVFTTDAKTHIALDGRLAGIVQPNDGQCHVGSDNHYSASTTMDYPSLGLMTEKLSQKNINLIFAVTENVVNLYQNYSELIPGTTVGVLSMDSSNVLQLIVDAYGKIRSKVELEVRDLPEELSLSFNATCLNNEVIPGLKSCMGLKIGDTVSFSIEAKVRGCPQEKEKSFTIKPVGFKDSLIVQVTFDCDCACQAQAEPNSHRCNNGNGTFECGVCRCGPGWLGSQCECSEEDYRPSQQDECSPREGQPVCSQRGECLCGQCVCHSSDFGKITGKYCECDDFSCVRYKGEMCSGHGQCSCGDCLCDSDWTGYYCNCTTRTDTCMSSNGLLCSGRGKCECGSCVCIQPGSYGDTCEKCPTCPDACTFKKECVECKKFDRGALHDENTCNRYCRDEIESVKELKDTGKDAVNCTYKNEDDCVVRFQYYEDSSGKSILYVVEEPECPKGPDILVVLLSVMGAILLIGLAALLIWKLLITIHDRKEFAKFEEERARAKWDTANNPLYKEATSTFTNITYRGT

SMILES | inhibition of ex vivo aggregation [1, 5] [%] | bleeding time, result in words [2, 5] | Rabbit % P.A. Inhibition (ex vivo) [3] | IC50 [4] [µM] | inhibition of aggregation [1, 6] [%] | bleeding time, result in words [2, 6] | inhibition of ex vivo aggregation ([1]; bolus of 125 μg/kg plus an infusion of 3 μg/kg/min, throughout the infusion period) [%] | bleeding time during the infusion ([2]; dose printed for 7/46: bolus 125 μg/kg plus 3 μg/kg/min, 7/1 value is a mean) [min]
N=C(N)NCCC[C@@H]1NC(=O)[C@@H](Cc2ccc(O)cc2)NC(=O)CSC[C@@H](C(=O)N[C@@H](CCCCN)C(N)=O)NC(=O)[C@H](CC(=O)O)NC(=O)CNC1=O [7/3, cyclo-S-acetyl-dTyr--Arg--Gly--Asp--Cys--Lys--NH2] ({CH2CO}-[dY]RGDCK-NH2; thioether N-5) | > 95 | without prolongation of the bleeding time | 97% | 0.32 |  |  |  | 
N=C(N)NCCC[C@@H]1NC(=O)[C@@H](Cc2ccc(O)cc2)NC(=O)CSC[C@@H](C(=O)N[C@@H](CCCN)C(N)=O)NC(=O)[C@H](CC(=O)O)NC(=O)CNC1=O [7/5, cyclo-S-acetyl-dTyr--Arg--Gly--Asp--Cys--Orn--NH2] ({CH2CO}-[dY]RGDC[Orn]-NH2; thioether N-5) |  |  | 100% |  | > 90 | minimal prolongation of bleeding |  | 
N=C(N)NCCC[C@@H]1NC(=O)[C@@H](Cc2ccc(O)cc2)NC(=O)CSC[C@@H](C(=O)O)NC(=O)[C@H](CC(=O)O)NC(=O)CNC1=O [7/46, cyclo-S-acetyl-dTyr--Arg--Gly--Asp--Cys--OH] ({CH2CO}-[dY]RGDC-OH; thioether N-5) |  |  | 99% and 55% | 0.15 |  |  | 100 | > 30
